How the values were obtained:
[1] = Serum estrogen levels (E1S and E2) in treated rats; assay type: in vivo, rat; conditions: 24 h after last administration
Method: In this study, a last administration was performed 24 hours before the necropsy for E1S and E2 serum levels assays. The uteri were removed, freed of adjacent tissue, wet weighed and immediately deep frozen until the determination of sulfatase activity.
E1S and E2 levels were determined according to the supplier's standard method (DSL, Webster, Tex., USA).

MCF-7 cells = test: Hormono-dependent induced MCF-7 xenografts: volume and weight; assay type: in vivo, mice; conditions: oral 0.1 mg/kg/day for 6 weeks
Method: (§1) MCF-7 cells, derived from human breast adenocarcinoma, were injected subcutaneously in ovariectomized athymic nude mice supplemented with estrone sulfate (pellets 0.5 mg/90 day release). Xenograft volumes were determined once weekly. When tumor volumes reached a significant increase, 6,6,7 COUMATE and Ex 55 were orally administered at 0.1 mg/kg/day for 6 weeks.
(§2) Xenografts were measured, removed, weighed, and deep frozen until the determination of steroid sulfatase activity.

steroid sulfatase = biological target: T1, steroid sulfatase (Homo sapiens, UniProt P08842); test: Xenograft steroid sulfatase activity; assay type: in vivo, mouse; conditions: oral 0.1 mg/kg/day for 6 weeks
T1 construct: from tissue; host or cells: MCF-7 xenograft tumour removed from athymic nude mice
T1 sequence (P08842 22-583): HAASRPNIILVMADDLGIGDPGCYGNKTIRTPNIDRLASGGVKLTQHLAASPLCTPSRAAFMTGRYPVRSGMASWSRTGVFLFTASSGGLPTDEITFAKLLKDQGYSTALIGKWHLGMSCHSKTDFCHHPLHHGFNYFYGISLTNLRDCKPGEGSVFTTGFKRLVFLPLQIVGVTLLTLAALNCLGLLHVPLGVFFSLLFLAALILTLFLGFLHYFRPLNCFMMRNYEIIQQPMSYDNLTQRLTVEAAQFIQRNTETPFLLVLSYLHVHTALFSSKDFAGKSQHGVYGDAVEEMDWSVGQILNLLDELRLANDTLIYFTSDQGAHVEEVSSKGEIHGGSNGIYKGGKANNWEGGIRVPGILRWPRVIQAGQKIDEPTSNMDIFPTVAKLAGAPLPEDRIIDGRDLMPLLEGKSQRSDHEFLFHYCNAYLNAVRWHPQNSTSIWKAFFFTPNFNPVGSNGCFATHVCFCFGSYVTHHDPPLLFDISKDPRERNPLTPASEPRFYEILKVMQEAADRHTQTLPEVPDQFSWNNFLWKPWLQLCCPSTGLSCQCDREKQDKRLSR
Method: as §1, §2

estrone sulfatase [2] = biological target: T2, estrone sulfatase (Homo sapiens, UniProt P08842); test: Estrone sulfatase whole-cell assay on JEG-3 cells; assay type: cell-based; parameters: The JEG-3 cell line, derived from a human placental choriocarcinoma, is spontaneously very rich in human estrone sulfatase; endogenous in cells; host or cells: JEG-3 (human placental choriocarcinoma), intact cells; conditions: 4 h treatment, 3H-E1S, read-out: IC50 (nM) ± S.E.M., inhibition of estrone sulfatase
T2 sequence (P08842 22-583): T1 sequence (P08842 22-583)
Method: (§3) Two in vitro models on whole cells were used. […] Moreover, these cells were used in the in vivo model of hormono-dependent induced xenografts.
(§4) Estrone Sulfatase Assay on Cells
(§5) Whole-cell assays were performed as originally described by Duncan et al. (Cancer Res., 1993, 53: 298-303) on intact MCF-7 cell monolayers. Assays were carried out with cells in logarithmic growth phase, on 96-well (JEG-3) or 24-well (MCF-7) microplates. Twenty-four hours (JEG-3) or 72 h (MCF-7) before studies, cells were seeded in decomplemented fetal calf serum (dFCS) supplemented medium. Then, the seeding medium was removed and the cells were rinsed with PBS to eliminate any trace of dFCS. Then, ^3H-E1S was added, followed by test compounds ranging from 10^−12 M to 10^−5 M. After 4 h (JEG-3) or 20 h (MCF-7) of treatment, the medium was transferred into either 96-deep-well microplates (JEG-3) or plastic tubes (MCF-7) and centrifuged at 200×g for 10 min to pellet cells before toluene extraction. A fraction of medium was used for toluene extraction in order to separate conjugated substrate and non-conjugated products. The radioactivity in the toluene phase was measured by liquid scintillation counting (LSC). Finally, estrone sulfatase activity was expressed in pmoles of ^3H-E1+^3H-E2 formed per 4 or 20 hours and per μg DNA and estrone sulfatase inhibition in percentage of control activity without inhibitor.

estrone sulfatase [3] = biological target: T2, estrone sulfatase; test: Estrone sulfatase whole-cell assay on MCF-7 cells; assay type: cell-based; parameters: Whole-cell assays were performed as originally described by Duncan et al. (Cancer Res., 1993, 53: 298-303) on intact MCF-7 cell monolayers; endogenous in cells; host or cells: MCF-7 (human breast adenocarcinoma), intact monolayers; conditions: 20 h treatment, 3H-E1S, read-out: IC50 (nM) ± S.E.M., inhibition of estrone sulfatase
Method: as §3, §4, §5

[4] = MCF-7 xenografts, nude mice with E1S pellet

NS(=O)(=O)Oc1ccc2c(c1)S(=O)(=O)C(CC1CCCCCC1)=C2 [Ex 55, Sulfamic acid, 2-cycloheptylmethyl-benzothiophene-6-yl-1,1-dioxide ester]
E1S levels (serum) ([1]; 0.03 mg/kg/day p.o.): 17 ± 2.5 ng/mL | E2 levels (serum) ([1]; 0.03 mg/kg/day p.o.): 31 ± 2.8 pg/mL | E1S levels (serum) ([1]; 0.1 mg/kg/day p.o.): 21 ± 2.4 ng/mL | E2 levels (serum) ([1]; 0.1 mg/kg/day p.o.): 28 ± 1.3 pg/mL | E1S levels (serum) ([1]; 0.3 mg/kg/day p.o.): 69 ± 5.9 ng/mL | E2 levels (serum) ([1]; 0.3 mg/kg/day p.o.): 22 ± 1.2 pg/mL | E1S levels (serum) ([1]; 1 mg/kg/day p.o.): 83 ± 2.5 ng/mL | E2 levels (serum) ([1]; 1 mg/kg/day p.o.): 15 ± 0.9 pg/mL | Xenograft volume after 6 week treatment (MCF-7 cells; [4]): 1488 ± 233 mm^3 | Xenograft weight after 6 week treatment (MCF-7 cells; [4]): 877 ± 185 mg | inhibition of the E1S induced stimulation (xenograft volume) (MCF-7 cells): 18% | inhibition of xenograft weight (MCF-7 cells): 35% | Xenograft steroid sulfatase activity (steroid sulfatase; MCF-7 xenografts): 263 ± 17 pmol/h/mg protein | inhibition at 0.1 mg/kg/day (steroid sulfatase; read-out: inhibition of intratumoral steroid sulfatase activity): 84% | melting point: 135 °C | IC50 (estrone sulfatase [2]): 7.7 ± 0.4 nM | IC50 (estrone sulfatase [3]): 0.05 ± 0.01 nM

Source: patent publication US7476691B2, “Sulfamate benzothiophene derivatives as steroid sulfatase inhibitors” (Laboratoire Theramex, priority 2003, dated 2009)
